The values that follow come from patent US9708314B2, “Heterocyclic amide compound” (NISSAN CHEMICAL INDUSTRIES, LTD., priority 2013, dated 2017).

For orientation: melting point means the temperature, or range, at which the solid turns liquid.

Data set [1] relates to directly sowed Oryza sativa. In words: Test Example 3: effect on crop by application to foliage (Wagner pot, water depth 0.1-0.5 cm). The data set is classed as in vivo. The conditions noted are these: Nineteenth Table; application herbicide amount 320 g/ha. The method in brief: (§1)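 Seeds were sown in alluvial soil in Wagner pots, grown for 14 days at 25–30 °C, then sprayed uniformly on foliage with the emulsified compound diluted to a given rate per hectare. Injury was graded three weeks after treatment from 0 (≤5%) to 5 (≥90%).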

The next data set deals with Cyperus difformis. The data set can be described thus: Test Example 3: herbicidal effect by application to foliage (Wagner pot, water depth 0.1-0.5 cm). In kind it is in vivo. Particulars: Nineteenth Table; application herbicide amount 320 g/ha. The essentials: as §1
Data set [2] deals with Echinochloa crus-galli var. crus-galli. The data set is described as above. In kind it is in vivo. The conditions noted are these: Nineteenth Table; application herbicide amount 320 g/ha. The method in brief:
as §1

The test system of a further data set is Leptochloa chinensis. Described as above. The data set is classed as in vivo. The conditions noted are these: Nineteenth Table; application herbicide amount 320 g/ha. The essentials:
as §1

In data set [3] the test system is directly sowed Oryza sativa. The data set can be described thus: Test Example 4: effect on crop by application to foliage (diluvial soil, plastic box). The data set is classed as in vivo. The conditions noted are these: application to foliage, application herbicide amount 320 g/ha. The essentials:
(§2)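 Read-out is a 0–5 visual grade of herbicidal ratio (5: ≥90%, almost withered; 0: ≤5%) taken three weeks after treatment. Compound was applied as a diluted emulsion to stem and leaf parts of 14-day greenhouse-grown plants (25° C. to 30° C.) at rates expressed as g/ha.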

The test system of data set [4] is Beta vulgaris ssp. vulgaris. The data set is described as above. The data set is classed as in vivo. Particulars: application to foliage, application herbicide amount 320 g/ha. The essentials:
as §2

A further data set deals with Brassica campestris L. The data set is described as above. The data set is classed as in vivo. Particulars: application to foliage, application herbicide amount 320 g/ha. The essentials: as §2
The subject of a further data set is Zea mays. The data set is described as above. Particulars: application to foliage, application herbicide amount 320 g/ha. The data set is classed as in vivo. The method in brief: as §2
The test system of the next data set is Triticum aestivum. The data set is described as above. The data set is classed as in vivo. The conditions noted are these: application to foliage, application herbicide amount 320 g/ha. The essentials: as §2
The subject of the next data set is Glycine max. The data set is described as above. In kind it is in vivo. Particulars: application to foliage, application herbicide amount 320 g/ha. The essentials:
as §2

A further data set deals with Veronica persica. The data set can be described thus: Test Example 4: herbicidal effect by application to foliage (diluvial soil, plastic box). In kind it is in vivo. The conditions noted are these: application to foliage, application herbicide amount 320 g/ha. The method in brief: as §2
Another data set has as its system Setaria viridis. Described as above. The data set is classed as in vivo. Particulars: application to foliage, application herbicide amount 320 g/ha. The method in brief:
as §2

A further data set has as its system Stellaria media. The description is as above. The data set is classed as in vivo. The conditions noted are these: application to foliage, application herbicide amount 320 g/ha. The essentials: as §2
Another data set deals with Lolium multiflorum Lam. The description is as above. The data set is classed as in vivo. The conditions noted are these: application to foliage, application herbicide amount 320 g/ha. The method in brief: as §2
Another data set deals with Abutilon theophrasti. Described as above. In kind it is in vivo. The conditions noted are these: application to foliage, application herbicide amount 320 g/ha. The essentials: as §2
A further data set deals with Avena fatua. The data set is described as above. In kind it is in vivo. Particulars: application to foliage, application herbicide amount 320 g/ha. The essentials:
as §2

Data set [5] relates to Echinochloa crus-galli var. crus-galli. The data set is described as above. Particulars: application to foliage, application herbicide amount 320 g/ha. The data set is classed as in vivo. The essentials: as §2
For another data set, the system named is Amaranthus retroflexus. Described as above. In kind it is in vivo. The conditions noted are these: application to foliage, application herbicide amount 320 g/ha. The method in brief: as §2
The subject of another data set is Galium spurium. The description is as above. Particulars: application to foliage, application herbicide amount 320 g/ha. In kind it is in vivo. The essentials: as §2
Another data set concerns Apera spica-venti. The data set is described as above. In kind it is in vivo. Particulars: application to foliage, application herbicide amount 320 g/ha. The method in brief: as §2
A further data set has as its system Alopecurus myosuroides. The data set is described as above. In kind it is in vivo. The conditions noted are these: application to foliage, application herbicide amount 320 g/ha. The essentials: as §2
A further data set relates to Chenopodium album. The data set is described as above. The data set is classed as in vivo. Particulars: application to foliage, application herbicide amount 320 g/ha. The essentials: as §2
For a further data set, the system named is Digitaria ciliaris. The data set is described as above. In kind it is in vivo. Particulars: application to foliage, application herbicide amount 320 g/ha. The method in brief: as §2

The molecule `CC(C)c1nnc2c(C(=O)Nc3nnnn3C)ccc(Cl)n12` [2-004, 5-Chloro-3-isopropyl-N-(1-methyl-1H-tetrazol-5-yl)-[1,2,4]triazolo[4,3-a]pyridine-8-carboxamide] had a melting point of 189 to 190 °C.
In turn, `Cc1nonc1NC(=O)c1ccc(C(F)(F)F)n2c(C(C)C)nnc12` [3-001, 3-Isopropyl-N-(4-methyl-1,2,5-oxadiazol-3-yl)-5-(trifluoromethyl)-[1,2,4]triazolo[4,3-a]pyridine-8-carboxamide] gave a melting point of 185 to 186 °C.
With `Cc1nnc(NC(=O)c2ccc(C(F)(F)F)n3c(-c4ccc(C(F)(F)F)cc4)nnc23)o1` [1-045], the “b (directly sowed Oryza sativa) effect on crop grade” value in data set [1] was 0 (Herbicidal ratio of 5% or less (almost no effect)). Further, the “E (Cyperus difformis) herbicidal ratio grade” value in the data set with Cyperus difformis was 4 (Herbicidal ratio of 70% or more and less than 90%). The “H (Echinochloa crus-galli var. crus-galli) herbicidal ratio grade” value in data set [2] was 1 (Herbicidal ratio of 5% or more and less than 20%). Besides, the “D (Leptochloa chinensis) herbicidal ratio grade” value in the data set with Leptochloa chinensis is 3 (Herbicidal ratio of 40% or more and less than 70%). For the same molecule, the “d (directly sowed Oryza sativa) effect on crop” value in [3] was 1 (Herbicidal ratio of 5% or more and less than 20%). In addition, the “f (Beta vulgaris ssp. vulgaris) effect on crop” value in [4] is 3 (Herbicidal ratio of 40% or more and less than 70%). Further, the “g (Brassica campestris L.) effect on crop” value in the data set on Brassica campestris L. is 3 (Herbicidal ratio of 40% or more and less than 70%). For the same molecule, in the data set on Zea mays, the “b (Zea mays) effect on crop” value is reported as 0 (Herbicidal ratio of 5% or less (almost no effect)). Besides, the “e (Triticum aestivum) effect on crop” value in the data set on Triticum aestivum is listed as 0 (Herbicidal ratio of 5% or less (almost no effect)). Besides, in the data set with Glycine max, the “c (Glycine max) effect on crop” value is reported as 0 (Herbicidal ratio of 5% or less (almost no effect)). Also, in the data set on Veronica persica, the “R (Veronica persica) herbicidal effect” value was 3 (Herbicidal ratio of 40% or more and less than 70%). In addition, the “G (Setaria viridis) herbicidal effect” value in the data set on Setaria viridis was 1 (Herbicidal ratio of 5% or more and less than 20%). Also, the “P (Stellaria media) herbicidal effect” value with Stellaria media was 2 (Herbicidal ratio of 20% or more and less than 40%). In addition, the “K (Lolium multiflorum Lam.) herbicidal effect” value in the data set on Lolium multiflorum Lam. was 0 (Herbicidal ratio of 5% or less (almost no effect)). The “M (Abutilon theophrasti) herbicidal effect” value in the data set with Abutilon theophrasti was 4 (Herbicidal ratio of 70% or more and less than 90%). For the same molecule, the “I (Avena fatua) herbicidal effect” value in the data set on Avena fatua is on record as 0 (Herbicidal ratio of 5% or less (almost no effect)). Besides, in [5], the “H (Echinochloa crus-galli var. crus-galli) herbicidal effect” value was 2 (Herbicidal ratio of 20% or more and less than 40%). Further, in the data set on Amaranthus retroflexus, the “N (Amaranthus retroflexus) herbicidal effect” value is 4 (Herbicidal ratio of 70% or more and less than 90%). Moreover, the “Q (Galium spurium) herbicidal effect” value in the data set on Galium spurium was 2 (Herbicidal ratio of 20% or more and less than 40%). The “L (Apera spica-venti.) herbicidal effect” value in the data set with Apera spica-venti. is on record as 0 (Herbicidal ratio of 5% or less (almost no effect)). Besides, the “J (Alopecurus myosuroides) herbicidal effect” value in the data set with Alopecurus myosuroides is 0 (Herbicidal ratio of 5% or less (almost no effect)). For the same molecule, the “O (Chenopodium album) herbicidal effect” value in the data set with Chenopodium album was 5 (Herbicidal ratio of 90% or more (almost completely withered)). Moreover, the “F (Digitaria ciliaris) herbicidal effect” value in the data set with Digitaria ciliaris is 3 (Herbicidal ratio of 40% or more and less than 70%).
